Results from the supplement of paper PMC8149375.

Key:
Details in all cases: treatment: drug + dasatinib (fixed dose, not stated); 5 days
[1] = test system: 786-O; assay: GI50 of drug in presence of dasatinib; higher = less potent
Method: (§1)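 Primary HTS combination arm: 8 RCC cell lines treated with 8 doses (up to 10 uM) of each library drug plus a fixed dose of dasatinib (dose not stated) for 5 days; viability read by CellTiter-Glo and normalised to DMSO. GI50 was fitted with XLfit, AUC is the area under the dose-response curve, and minimum viability is the lowest fraction of DMSO viability across doses.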

[2] = test system: 769-P; assay: as above
Method: as §1

[3] = test system: UO-31; assay: as above
Method: as §1

[4] = test system: A498; assay: as above
Method: as §1

[5] = test system: TK-10; assay: as above
Method: as §1

[6] = test system: SN12C; assay: as above
Method: as §1

[7] = test system: CAKI-1; assay: as above
Method: as §1

[8] = test system: 786-O; assay: minimum viability across doses, drug + dasatinib, relative to DMSO (fraction); higher = less growth inhibition
Method: as §1

[9] = test system: 769-P; assay: as above
Method: as §1

[10] = test system: UO-31; assay: as above
Method: as §1

[11] = test system: A498; assay: as above
Method: as §1

[12] = test system: TK-10; assay: as above
Method: as §1

[13] = test system: SN12C; assay: as above
Method: as §1

[14] = test system: CAKI-1; assay: as above
Method: as §1

[15] = test system: ACHN; assay: as above
Method: as §1

[16] = test system: 786-O; assay: AUC of dose-response viability curve, drug + dasatinib, normalised to DMSO (arbitrary (AUC of normalised viability)); higher = less growth inhibition
Method: as §1

[17] = test system: 769-P; assay: as above
Method: as §1

[18] = test system: UO-31; assay: as above
Method: as §1

[19] = test system: A498; assay: as above
Method: as §1

[20] = test system: TK-10; assay: as above
Method: as §1

[21] = test system: SN12C; assay: as above
Method: as §1

[22] = test system: CAKI-1; assay: as above
Method: as §1

[23] = test system: ACHN; assay: as above
Method: as §1

[24] = test system: ACHN; assay: GI50 of drug in presence of dasatinib; higher = less potent
Method: as §1

| SMILES | GI50 of drug [1] [µM] | GI50 of drug [2] [µM] | GI50 of drug [3] [µM] | GI50 of drug [4] [µM] | GI50 of drug [5] [µM] | GI50 of drug [6] [µM] | GI50 of drug [7] [µM] | minimum viability across doses [8] | minimum viability across doses [9] | minimum viability across doses [10] | minimum viability across doses [11] | minimum viability across doses [12] | minimum viability across doses [13] | minimum viability across doses [14] | minimum viability across doses [15] | AUC of dose-response viability curve [16] | AUC of dose-response viability curve [17] | AUC of dose-response viability curve [18] | AUC of dose-response viability curve [19] | AUC of dose-response viability curve [20] | AUC of dose-response viability curve [21] | AUC of dose-response viability curve [22] | AUC of dose-response viability curve [23] | GI50 of drug [24] [µM] |
| --- | --- | --- | --- | --- | --- | --- | --- | --- | --- | --- | --- | --- | --- | --- | --- | --- | --- | --- | --- | --- | --- | --- | --- | --- |
| Cn1cc(-c2ccc3nnc(Sc4ccc5ncccc5c4)n3n2)cn1 [SGX-523] + Cc1nc(Nc2ncc(C(=O)Nc3c(C)cccc3Cl)s2)cc(N2CCN(CCO)CC2)n1 [dasatinib] | 5.68 | > 10 | > 10 | > 10 | > 10 | > 10 | 5.5 | 0.477 | 0.548 | 0.836 | 0.743 | 0.646 | 0.679 | 0.41 | 0.452 | 2.25 | 2.38 | 3.15 | 2.84 | 2.41 | 2.46 | 1.92 | 1.87 | – |
| COc1cc(N2CCC(N3CCN(C)CC3)CC2)ccc1Nc1ncc(Cl)c(Nc2ccccc2S(=O)(=O)C(C)C)n1 [TAE684 (NVP-TAE684)] + Cc1nc(Nc2ncc(C(=O)Nc3c(C)cccc3Cl)s2)cc(N2CCN(CCO)CC2)n1 [dasatinib] | < 0.003 | – | – | 2.87 | 0.64 | 0.427 | 0.224 | 0.0739 | 0.23 | 0.0115 | 0.348 | 0.206 | 0.0423 | 0.0167 | 0.0286 | 1.55 | 1.83 | 2.04 | 2.64 | 2.06 | 1.82 | 1.51 | 1.15 | 0.0373 |
| O=c1sn(-c2cccc3ccccc23)c(=O)n1Cc1ccccc1 [Tideglusib] + Cc1nc(Nc2ncc(C(=O)Nc3c(C)cccc3Cl)s2)cc(N2CCN(CCO)CC2)n1 [dasatinib] | 0.0101 | > 10 | > 10 | > 10 | > 10 | > 10 | > 10 | 0.429 | 0.632 | 1.03 | 0.729 | 0.642 | 0.672 | 0.664 | 0.357 | 1.76 | 2.52 | 4.27 | 3.01 | 2.33 | 2.5 | 2.44 | 1.79 | – |
| CCO.N#CC(=C(/N)Sc1ccccc1N)/C(C#N)=C(\N)Sc1ccccc1N [U0126-EtOH] + Cc1nc(Nc2ncc(C(=O)Nc3c(C)cccc3Cl)s2)cc(N2CCN(CCO)CC2)n1 [dasatinib] | > 10 | > 10 | > 10 | > 10 | > 10 | > 10 | 6.71 | 0.526 | 0.68 | 0.792 | 0.888 | 0.524 | 0.598 | 0.46 | 0.353 | 2.5 | 2.5 | 3.2 | 3.54 | 2.65 | 2.4 | 2.37 | 1.84 | – |
| NC(=O)c1ccc(N(C(N)=O)c2c(F)cccc2F)nc1-c1ccc(F)cc1F [VX-702] + Cc1nc(Nc2ncc(C(=O)Nc3c(C)cccc3Cl)s2)cc(N2CCN(CCO)CC2)n1 [dasatinib] | > 10 | > 10 | > 10 | > 10 | > 10 | > 10 | > 10 | 0.547 | 0.627 | 1.12 | 0.887 | 0.598 | 0.685 | 0.649 | 0.409 | 2.23 | 2.4 | 4.36 | 3.52 | 2.39 | 2.54 | 2.43 | 1.87 | – |
| Cl.Cl.Clc1ccc(Nc2nnc(Cc3ccncc3)c3ccccc23)cc1 [Vatalanib dihydrochloride (PTK787)] + Cc1nc(Nc2ncc(C(=O)Nc3c(C)cccc3Cl)s2)cc(N2CCN(CCO)CC2)n1 [dasatinib] | > 10 | 7.92 | > 10 | > 10 | > 10 | > 10 | 2.76 | 0.549 | 0.433 | 0.834 | 0.729 | 0.666 | 0.632 | 0.217 | 0.474 | 2.65 | 2.3 | 3.35 | 3.2 | 2.63 | 2.32 | 2.04 | 1.91 | – |
